Assay results published in PubChem BioAssay (NCI).
“And” between values parts separate entries of the source, which are not always exact repeats. Identical values can stand only once.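 The compound was tested at five concentrations on cells cultured in 96-well plates, with a 48-hour exposure period. GI50: concentration for 50% inhibition of growth. Definition used: TGI = concentration required for complete inhibition of growth.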

Columns and labels:
Assay in all cases: NCI-60 cell line screen, 48 h
HCT-15 colon = test system: HCT-15 colon
KM12 colon = test system: KM12 colon
LOX IMVI melanoma = test system: LOX IMVI melanoma
MALME-3M melanoma = test system: MALME-3M melanoma
NCI-H226 lung = test system: NCI-H226 lung
SF-268 CNS = test system: SF-268 CNS
SF-295 CNS = test system: SF-295 CNS
SNB-75 CNS = test system: SNB-75 CNS
U251 CNS = test system: U251 CNS
UO-31 renal = test system: UO-31 renal

| SMILES | GI50 (HCT-15 colon) [µM] | TGI (HCT-15 colon) | TGI (KM12 colon) | TGI (LOX IMVI melanoma) | TGI (MALME-3M melanoma) [µM] | TGI (NCI-H226 lung) | TGI (SF-268 CNS) | TGI (SF-295 CNS) | GI50 (SNB-75 CNS) [µM] | GI50 (U251 CNS) [µM] | GI50 (UO-31 renal) [µM] | TGI (UO-31 renal) | GI50 (KM12 colon) [µM] | GI50 (LOX IMVI melanoma) [µM] | GI50 (MALME-3M melanoma) [µM] | GI50 (NCI-H226 lung) [µM] | GI50 (SF-268 CNS) [µM] | GI50 (SF-295 CNS) [µM] | TGI (SNB-75 CNS) [µM] | TGI (U251 CNS) [µM] |
| --- | --- | --- | --- | --- | --- | --- | --- | --- | --- | --- | --- | --- | --- | --- | --- | --- | --- | --- | --- | --- |
| C=C(Cl)[C@@](Cl)(CBr)CC[C@@H](Br)C(C)(C)Cl | 0.866 | 4.99 µM and 1.97 µM | 2.36 µM and 0.689 µM | 39.4 µM and 34.3 µM | 42.9 | 31 µM and 50.8 µM | 3.01 µM and 0.838 µM | 2.46 µM and 0.452 µM | 1.35 | 0.971 | 0.428 | 1.85 µM and 2.01 µM | – | – | – | – | – | – | – | – |
| C=C(Cn1c2ccccc2c(=O)c2ccccc21)c1ccc(C(=O)Nc2ccccc2N)cc1 | 3.48 | > 100 µM | > 100 µM | > 100 µM | > 100 | > 100 µM | > 100 µM | > 100 µM | 1.08 | 8.1 | 2.64 | > 100 µM | 2.43 | 50.4 | 6.45 | > 24.8 | 5.74 | > 81.5 | > 28 | > 100 |
| CC1=CCN(c2ccccn2)OC1c1ccccc1 (configuration not stated) | – | > 100 µM | > 100 µM | > 100 µM | > 100 | > 100 µM | > 100 µM | > 100 µM | – | – | – | > 100 µM | – | – | – | – | – | – | > 100 | > 100 |
| COc1ccc(/C=C/C(C)=N/OCC(=O)Nc2ccc(Cl)cc2)cc1 | 2.14 | 15.6 µM | 16.5 µM | 15.5 µM | 23.3 | 26.7 µM | 49.4 µM | 14.9 µM | 3.21 | 2.94 | 1.67 | 22 µM | 2.24 | 2.63 | 4.22 | 3.38 | 4.2 | 2.96 | 32.6 | 13.7 |
| O=c1[nH]c2ccc([N+](=O)[O-])c(Cl)c2c2ccccc12 | – | > 100 µM | 4.52 µM | > 100 µM | 27.6 | 43.9 µM | 10.6 µM | 9.18 µM | – | – | – | 21.2 µM | – | – | – | – | – | – | 56.7 | 18 |
| O=C(N/N=C/c1ccc(F)cc1)c1ccc(C(F)(F)F)nc1Nc1cccc(C(F)(F)F)c1 | 0.351 | 1.87 µM | 3.76 µM | 2.17 µM | 4.68 | 4.17 µM | 2.34 µM | 2.69 µM | 1.64 | 0.598 | 2.14 | 6.69 µM | 1.38 | 0.522 | 1.28 | 1.26 | 0.465 | 0.744 | 10.2 | 2.98 |
| CCCCCCCCCCCCOC1C(C(CC(=O)N2CCN(Cc3ccc4c(c3)OCO4)CC2)NS(=O)(=O)c2cc(Cl)cc(Cl)c2)OC2OC(C)(C)OC21 (configuration not stated) | > 100 | > 100 µM | > 100 µM | > 65.9 µM | > 100 | > 100 µM | > 91.5 µM | > 100 µM | > 45 | 12.5 | 32.9 | > 100 µM | 18.1 | 16 | > 93.1 | 43.5 | 12.3 | 26.3 | > 100 | > 100 |
